# Measured values published in US20150133467A1, “SCREENING METHOD, PROTEIN INSTABILITY AND/OR STABILITY INDUCERS, AND PROTEIN ACTIVITY ASSESSMENT” (KYOTO UNIVERSITY, priority 2012, published 2015).
# Tests used:
# [1] = target: T1, DYRK1A (Rattus norvegicus, UniProt Q63470); assay: Monitoring of DYRK1A activity inhibition using homocysteine in blood as index; format: in vivo; conditions: rats, oral, 18 mg/kg, FIG. 7
# T1 construct: from tissue; host or cells: living rat (whole animal); blood plasma analysed for homocysteine
# Method: DYRK1A inhibitor Harmine was orally administered to rats, and the post-administration homocysteine concentration in blood was measured. The specific conditions are as follows, and the results are illustrated in FIG. 7.
# After dissolving the DYRK1A inhibitor Harmine in an administration solvent of 0.9% NaCl, about 1 ml per individual was orally administered (final administration concentration: 18 mg/kg). At certain interval after the administration, the blood was collected from caudate veins. From the blood, blood plasma was separated and preserved in the presence of EDTA-2Na. Analysis of the homocysteine concentration in the blood plasma was consigned to SRL. Specifically, the measurement was conducted by extracting fractures including homocysteine from the blood plasma and then analyzing the amount of homocysteine included in the extract by HPLC (see Araki A et al: Journal of Chromatography 422, 43-52 1987, Araki A: Gendai-Iryou 22, 10, 2544-2549 1990).
# [2] = target: T2, FLAGx3-DYRK1A protein (Homo sapiens, UniProt Q13627); assay: Screening with FLAGx3-DYRK1A-2A-HAx3-EGFP assay cells, Western blotting; format: cell-based; conditions: Western blot; for amount of FLAGx3-DYRK1A (FLAG-DYRK1A) protein within the cells: FIGS. 9-12, constant concentration not stated; for amount of intracellular DYRK1A protein: concentration of 4 μm, FIG. 8
# T2 construct: 2A peptide (what is left of it after self-cleavage) (C); expressed in transfected cells
# Method: Cultured cells with expressed FLAGx3-DYRK1A-2A-HAx3-EGFP (assay cells) were cultured on a plate, and test compounds of a constant concentration were added to the culture solution for a further cultivation. After the cultivation, the amounts of FLAGx3-DYRK1A, HAx3-EGFP, and GAPDH were quantitatively analyzed by a Western blotting method, and the ratio was analyzed.
# After the cultivation, the amounts of FLAGx3-DYRK1A, HAx3-EGFP, and GAPDH were quantitatively analyzed by a Western blotting method, and the ratio was analyzed.
# After the cultivation, the respective amounts of FLAGx3-DYRK1A, HAx3-EGFP, and GAPDH were quantitatively analyzed by a Western blotting method, and the ratio was analyzed.
# [3] = tested on: EGFP-TAU protein; assay: Screening with mCherry-2A-EGFP-TAU assay cells, Western blot analysis; format: cell-based, human
# Source text: An assay cell having the simultaneous expression system of EGFP-fused TAU and mCherry (mCherry-2A-EGFP-TAU) as shown in the model diagram of FIG. 5 was produced. Specifically, the process was as follows. EGFP was fused with TAU (EGFP-TAU), and further, it was connected in-frame by using 2A peptide and mCherry gene that codes a red fluorescent protein (mCherry-2A-EGFP-TAU). The 2A peptide is an amino acid sequence enabling a bicistronic gene expression. Thereby, mCherry-2A-EGFP-TAU is translated simultaneously from the top of a single mRNA. A vector expressing the gene (mCherry-2A-EGFP-TAU) was produced in the following manner.
SMILES,melting point,amount of intracellular DYRK1A protein [2],also measured
COc1ccc2c(c1)[nH]c1c(C)nccc12 [Harmine],,,homocysteine in blood ([1]; after two hours from administration): raised rapidly; homocysteine in blood compared with controls ([1]; for 5 hours): higher numerical values in comparison with controls
"COc1ccc2c([nH]c3c(C)nccc32)c1C#C[Si](C)(C)C [Compound 9, 8-[2-(trimethylsilyl)ethynyl]harmine]",185 to 186 °C,,amount of FLAGx3-DYRK1A (FLAG-DYRK1A) protein within the cells [2]: reduces only the amount of the FLAG-DYRK1A protein; amount of the internal standard EGFP protein ([2]; FIGS. 10-11): does not affect
"Fc1ccc(N2CCN(c3ccccc3)CC2)c(NC(=S)c2ccncc2)c1 [Compound 2, N-[5-fluoro-2-(4-phenyl-1-piperazinyl)phenyl]isonicotinthioamide]",183 to 186 °C,,"effect on stability of TAU protein [3]: make TAU protein unstable and allow the protein to decompose; effect on transcription and translation of TAU [3]: not to affect at all; amount of the EGFP-TAU protein within the cells ([3]; Western blot, FIG. 6): reduces only the amount of the EGFP-TAU protein; amount of the internal standard mCherry protein ([3]; Western blot, FIG. 6): does not affect"
"COc1ccc(/C=C2\SC(=S)NC2=O)cc1C#CC1C2CC3CC(C2)CC1C3 (stereo not drawn) [Compound 4, (Z)-5-(3-(2-adamantylethynyl)-4-methoxybenzylidene)-2-thioxothiazolidin-4-one]",266 to 267 °C,capable of reducing,
"COc1ccc2c([nH]c3c(C)nccc32)c1C#CC1CCCCC1 [Compound 10, 8-[2-(cyclohexyl)ethynyl]harmine]",198 to 199 °C,,amount of FLAGx3-DYRK1A (FLAG-DYRK1A) protein within the cells [2]: reduces the FLAGx3-DYRK1A protein
"COc1ccc(/C=C2\SC(=S)NC2=O)cc1C#CC1CCCCC1 [Compound 3, (Z)-5-(3-(cyclohexylethynyl)-4-methoxybenzylidene)-2-thioxothiazolidin-4-one]",185 to 186 °C,capable of reducing,
COc1ccc(/C=C2\SC(=S)NC2=O)cc1-c1cccc(C)c1 [Compound 5],204 to 205 °C,capable of reducing,

# Further lines, with some results ahead:
melting point,amount of intracellular DYRK1A protein [2],SMILES,also measured
209 to 210 °C,,"COc1ccc(/C=C2\SC(=S)NC2=O)cc1-c1cccc(C(F)(F)F)c1 [Compound 7, (Z)-5-(3-(trifluoromethyl)phenyl-4-methoxybenzylidene)-2-thioxothiazolidin-4-one]",
238 to 239 °C,,"COc1ccc(/C=C2\SC(=S)NC2=O)cc1-c1cc(C)cc(C)c1 [Compound 8, (Z)-5-(3,5-dimethylphenyl-4-methoxybenzylidene)-2-thioxothiazolidin-4-one]",
244 to 245 °C,,"COc1ccc(/C=C2\SC(=S)NC2=O)cc1-c1cc(C(F)(F)F)cc(C(F)(F)F)c1 [Compound 6, (Z)-5-(3,5-bis(trifluoromethyl)phenyl-4-methoxybenzylidene)-2-thioxothiazolidin-4-one]",
